According to publication PMC4768645, “Electronic Olfactory Sensor Based on A. mellifera Odorant‐Binding Protein 14 on a Reduced Graphene Oxide Field‐Effect Transistor” (Angewandte Chemie (International Ed. in English), 2015):
Read-outs that look alike come from different tables or passages of the source.

Target: T1, odorant-binding protein 14 (OBP14) (Apis mellifera, UniProt A0A8U0WQC3)
T1 construct: recombinant OBP14, cloning, expression and purification in supplement; immobilised via PBSE linker on reduced graphene oxide FET gate
T1 sequence (A0A8U0WQC3 17-135): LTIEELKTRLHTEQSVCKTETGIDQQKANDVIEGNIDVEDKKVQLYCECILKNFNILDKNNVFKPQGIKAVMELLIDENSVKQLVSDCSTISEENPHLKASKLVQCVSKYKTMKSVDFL
Assay: rGO-FET biosensor, real-time source-drain current, global Langmuir analysis
Excerpt: rGO-FET biosensor, real-time source-drain current, global Langmuir analysis on odorant-binding protein 14 (OBP14)

`CC(C)=CCCC(C)=CC=O` [Citral] was tested, and the Kd (read-out: Citral) was 800 µM.
`C=CCc1ccc(O)c(OC)c1` [Eugenol] gave a Kd (read-out: Eugenol) of 40 µM.
`CC(C)=CCC/C(C)=C/CO` [Geraniol] was tested, and the Kd (read-out: Geraniol) was 3300 µM.
In the case of `COc1cc(CC(=O)O)ccc1O` [Homovanillic acid], the Kd (read-out: Homovanillic acid) is reported as 4 µM.
`C=CCc1ccc(OC)c(OC)c1` [Methyl eugenol] was tested, and the Kd (read-out: Methyl eugenol) was 1400 µM.
For `COC(=O)c1ccc(O)c(OC)c1` [Methyl vanillate], the Kd (read-out: Methyl vanillate) was 20 µM.
